Laboratory results from patent publication US20210300924A1, “5-[6-[[3-(4,5,6,7-TETRAHYDROPYRAZOLO[4,3-C]PYRIDIN-1-YL)AZETIDIN-1-YL]METHYL]MORPHOLIN-4-YL]QUINOLINE-8-CARBONITRILE DERIVATIVES AND SIMILAR COMPOUNDS AS TLR7-9 ANTAGONISTS FOR TREATING SYSTEMIC LUPUS ERYTHEMATOSUS” (Hoffmann-La Roche Inc., priority 2018, published 2021).

How the values were obtained:
[1] = biological target: T1, CYP2D6 (Homo sapiens, UniProt P10635); assay: CYP inhibition assay in human liver microsome; format: in vitro ADME; settings: human liver microsomes, probe dextromethorphan, dextromethorphan substrate, percentage inhibition <0: not or weak inhibitor, read-out: CYP 2D6 inhibition % @ 10 μM
T1 construct: tissue BD-Gentest 452117; host or cells: human liver microsomes
Procedure: This is a high throughput screening assay used for assessment of reversible inhibition of CYP2D6 activity of test compounds in human liver microsome (HLM) in early discovery stage.
10 mM DMSO stock solutions of test compounds were diluted in DMSO to generate 2 mM intermediate stock solution. 250 nL of intermediate stock solution were transferred in duplicate into 3 separate 384 well microtitre plates (assay-ready plates). A mixture of HLM and each substrate was made up. 45 μL of HLM substrate mix was then transferred to each well of an assay ready plate and mixed. The negative (solvent) and positive control (standard inhibitor for CYP 2D6) were included in each assay ready plate. The assay ready plate was warmed to 37° C. in an incubator over 10 minutes. 5 μL pre-warmed NADPH regenerating system was added to each incubation well to start the reaction. Final incubation volume was 50 μL. The assay plate then was placed back in the 37° C. incubator. After 10 minutes incubation, incubates were quenched by addition of 50 μL 100% acetonitrile containing internal standards (20 ng/mL D3-Dextrorphan). The supernatants were collected for RapidFire/MS/MS analysis.
RapidFire online solid phase extraction/sample injection system (Agilent) coupled with API4000 triple quadrupole mass spectrometer (AB Sciex) were used for sample analysis. The mobile phase composed of acetonitrile and water supplemented with 0.1% formic acid. A C4 solid phase extraction cartridge is used for sample separation. MS detection is achieved in positive ion MRM mode.
Peak areas for substrate, metabolite and internal standard are determined using the RapidFire integrator software (version 3.6.12009.12296). Peak area ratios (PAR) of metabolite and internal standard (stable-labelled metabolite) are then calculated. The measurement window for each experiment is then defined:
PAR (0% activity)=average PAR for all incubations containing concentrated inhibitor;
Par (100% activity)=average PAR for all incubations containing no inhibitor (DMSO controls);
% Activity (test inhibitor)=
[PAR(test inhibitor)−PAR(0% activity)]/[PAR(100% activity)−PAR(0% activity)]; % Inhibition (test inhibitor)=100−% Activity (test inhibitor).

[2] = biological target: T2, TLR9 (Homo sapiens, UniProt Q9NR96); assay: HEK293-Blue-hTLR-9 cells assay; format: cell-based; set-up: host or cells: HEK293 (HEK-Blue hTLR9); settings: HEK293-Blue-hTLR9 cells, ODN2006 stimulation, 20 hrs, SEAP reporter; read-out: HEK/hTLR9 IC50
T2 sequence (Q9NR96 26-1032): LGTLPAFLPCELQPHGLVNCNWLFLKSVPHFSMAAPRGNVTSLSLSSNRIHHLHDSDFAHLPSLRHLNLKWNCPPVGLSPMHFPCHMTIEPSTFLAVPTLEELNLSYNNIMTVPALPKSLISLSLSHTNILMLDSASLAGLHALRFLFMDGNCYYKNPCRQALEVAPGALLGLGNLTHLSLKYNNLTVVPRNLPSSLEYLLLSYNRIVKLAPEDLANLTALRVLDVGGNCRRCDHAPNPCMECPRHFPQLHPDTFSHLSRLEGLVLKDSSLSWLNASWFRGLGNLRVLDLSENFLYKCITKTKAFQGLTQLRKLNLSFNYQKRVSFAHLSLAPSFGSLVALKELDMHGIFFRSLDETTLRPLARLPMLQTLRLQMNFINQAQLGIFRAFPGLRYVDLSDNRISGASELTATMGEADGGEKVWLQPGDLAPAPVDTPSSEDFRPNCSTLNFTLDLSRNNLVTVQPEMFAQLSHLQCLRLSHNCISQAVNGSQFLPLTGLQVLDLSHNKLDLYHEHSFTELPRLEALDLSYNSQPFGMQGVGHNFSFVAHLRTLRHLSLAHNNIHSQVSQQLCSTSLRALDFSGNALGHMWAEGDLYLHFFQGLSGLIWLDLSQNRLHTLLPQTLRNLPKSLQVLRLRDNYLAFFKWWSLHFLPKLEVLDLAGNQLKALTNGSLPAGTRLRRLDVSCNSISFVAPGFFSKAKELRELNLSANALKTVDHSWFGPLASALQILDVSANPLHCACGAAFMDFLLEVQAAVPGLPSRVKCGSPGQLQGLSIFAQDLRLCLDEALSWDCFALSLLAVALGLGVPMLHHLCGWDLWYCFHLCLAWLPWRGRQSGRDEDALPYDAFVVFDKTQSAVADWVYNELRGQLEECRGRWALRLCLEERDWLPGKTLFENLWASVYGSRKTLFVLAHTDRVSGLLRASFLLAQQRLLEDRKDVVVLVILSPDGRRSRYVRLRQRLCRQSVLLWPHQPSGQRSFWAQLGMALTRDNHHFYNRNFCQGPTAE
From the text: HEK293-Blue-hTLR-9 Cells Assay:
A stable HEK293-Blue-hTLR-9 cell line was purchased from InvivoGen (Cat. #: hkb-htlr9, San Diego, Calif., USA). These cells were originally designed for studying the stimulation of human TLR9 by monitoring the activation of NF-κB. A SEAP (secreted embryonic alkaline phosphatase) reporter gene was placed under the control of the IFN-β minimal promoter fused to five NF-κB and AP-1-binding sites. The SEAP was induced by activating NF-κB and AP-1 via stimulating HEK-Blue hTLR9 cells with TLR9 ligands. Therefore the reporter expression was declined by TLR9 antagonist under the stimulation of a ligand, such as ODN2006 (Cat. #: tlr1-2006-1, Invivogen, San Diego, Calif., USA), for incubation of 20 hrs. The cell culture supernatant SEAP reporter activity was determined using QUANTI-Blue™ kit (Cat. #: rep-01, Invivogen, San Diego, Calif., USA) at a wavelength of 640 nm, a detection medium that turns purple or blue in the presence of alkaline phosphatase.
HEK293-Blue-hTLR9 cells were incubated at a density of 250,000-450,000 cells/mL in a volume of 170 μL in a 96-well plate in Dulbecco's Modified Eagle's medium (DMEM) containing 4.5 g/L glucose, 50 U/mL penicillin, […], 2 mM L-glutamine, 10% (v/v) heat-inactivated fetal bovine serum with addition of 20 μL test compound in a serial dilution in the presence of final DMSO at 1% and 10 μL of 20 uM ODN2006 in above DMEM, perform incubation under 37° C. in a CO2 incubator for 20 hrs. Then 20 μL of the supernatant from each well was incubated with 180 μL Quanti-blue substrate solution at 37° C. for 2 h and the absorbance was read at 620-655 nm using a spectrophotometer. The signaling pathway that TLR9 activation leads to downstream NF-κB activation has been widely accepted, and therefore similar reporter assay was modified for evaluating TLR9 antagonist.

T1 sequence (P10635 whole entry): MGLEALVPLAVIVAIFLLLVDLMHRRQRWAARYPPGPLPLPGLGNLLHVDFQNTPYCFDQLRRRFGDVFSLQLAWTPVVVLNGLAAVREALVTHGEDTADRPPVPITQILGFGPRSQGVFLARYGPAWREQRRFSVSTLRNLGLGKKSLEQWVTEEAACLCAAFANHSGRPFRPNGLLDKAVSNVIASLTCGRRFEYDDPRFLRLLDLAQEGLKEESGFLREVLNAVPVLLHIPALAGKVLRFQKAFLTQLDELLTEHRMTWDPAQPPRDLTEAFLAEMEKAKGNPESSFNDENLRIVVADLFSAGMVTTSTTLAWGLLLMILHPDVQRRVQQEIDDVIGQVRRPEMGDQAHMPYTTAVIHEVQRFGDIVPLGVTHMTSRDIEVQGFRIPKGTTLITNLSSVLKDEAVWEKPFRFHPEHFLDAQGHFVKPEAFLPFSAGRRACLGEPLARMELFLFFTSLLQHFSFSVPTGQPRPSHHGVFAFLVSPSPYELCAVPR

inhibition at 10 min, 10 µM [1] [%]	IC50 [2] [nM]	SMILES
-1.5	137	C[C@@H]1CN(c2ccc(C#N)c3ncccc23)C[C@H](CN2CC(n3cc4c(n3)CN(C)CC4)C2)O1 [Example 5, 5-[(2R,6S)-2-methyl-6-[[3-(6-methyl-5,7-dihydro-4H-pyrazolo[3,4-c]pyridin-2-yl)azetidin-1-yl]methyl]morpholin-4-yl]quinoline-8-carbonitrile]
8.5	153	CCN1CCc2cnn(C3CN(C[C@H]4CN(c5ccc(C#N)c6ncccc56)C[C@@H](C)O4)C3)c2C1 [Example 6, 5-[(2S,6R)-2-[[3-(6-ethyl-5,7-dihydro-4H-pyrazolo[3,4-c]pyridin-1-yl)azetidin-1-yl]methyl]-6-methyl-morpholin-4-yl]quinoline-8-carbonitrile]
-19.5	116	CCN1CCc2cn(C3CN(C[C@H]4CN(c5ccc(C#N)c6ncccc56)C[C@@H](C)O4)C3)nc2C1 [Example 7, 5-[(2S,6R)-2-[[3-(6-ethyl-5,7-dihydro-4H-pyrazolo[3,4-c]pyridin-2-yl)azetidin-1-yl]methyl]-6-methyl-morpholin-4-yl]quinoline-8-carbonitrile]
11	125	CC(C)N1CCc2cnn(C3CN(C[C@H]4CN(c5ccc(C#N)c6ncccc56)C[C@@H](C)O4)C3)c2C1 [Example 8, 5-[(2S,6R)-2-[[3-(6-isopropyl-5,7-dihydro-4H-pyrazolo[3,4-c]pyridin-1-yl)azetidin-1-yl]methyl]-6-methyl-morpholin-4-yl]quinoline-8-carbonitrile]
15	172	CC(C)N1CCc2cn(C3CN(C[C@H]4CN(c5ccc(C#N)c6ncccc56)C[C@@H](C)O4)C3)nc2C1 [Example 9, 5-[(2S,6R)-2-[[3-(6-isopropyl-5,7-dihydro-4H-pyrazolo[3,4-c]pyridin-2-yl)azetidin-1-yl]methyl]-6-methyl-morpholin-4-yl]quinoline-8-carbonitrile]
6	78	Cc1nn(C2CN(C[C@H]3CN(c4ccc(C#N)c5ncccc45)C[C@@H](C)O3)C2)c2c1CNCC2 [Example 12, 5-[(2R,6S)-2-methyl-6-[[3-(3-methyl-4,5,6,7-tetrahydropyrazolo[4,3-c]pyridin-1-yl)azetidin-1-yl]methyl]morpholin-4-yl]quinoline-8-carbonitrile]
3	118	Cc1c2c(nn1C1CN(C[C@H]3CN(c4ccc(C#N)c5ncccc45)C[C@@H](C)O3)C1)CCNC2 [Example 13, 5-[(2R,6S)-2-methyl-6-[[3-(3-methyl-4,5,6,7-tetrahydropyrazolo[4,3-c]pyridin-2-yl)azetidin-1-yl]methyl]morpholin-4-yl]quinoline-8-carbonitrile]
-10.5	128	Cc1c2c(nn1C1CN(C[C@H]3CN(c4ccc(C#N)c5ncccc45)C[C@@H](C)O3)C1)CCN(C)C2 [Example 15, 5-[(2S,6R)-2-[[3-(3,5-dimethyl-6,7-dihydro-4H-pyrazolo[4,3-c]pyridin-2-yl)azetidin-1-yl]methyl]-6-methyl-morpholin-4-yl]quinoline-8-carbonitrile]
8	78	C[C@@H]1Cc2c(cnn2C2CN(C[C@H]3CN(c4ccc(C#N)c5ncccc45)C[C@@H](C)O3)C2)CN1 [Example 16, 5-[(2R,6S)-2-methyl-6-[[3-[(6R)-6-methyl-4,5,6,7-tetrahydropyrazolo[4,3-c]pyridin-1-yl]azetidin-1-yl]methyl]morpholin-4-yl]quinoline-8-carbonitrile]
1.5	88	C[C@@H]1Cc2nn(C3CN(C[C@H]4CN(c5ccc(C#N)c6ncccc56)C[C@@H](C)O4)C3)cc2CN1 [Example 17, 5-[(2R,6S)-2-methyl-6-[[3-[(6R)-6-methyl-4,5,6,7-tetrahydropyrazolo[4,3-c]pyridin-2-yl]azetidin-1-yl]methyl]morpholin-4-yl]quinoline-8-carbonitrile]
-2.5	147	C[C@@H]1CN(c2ccc(C#N)c3ncccc23)C[C@H](CN2CC(n3ncc4c3C[C@H](C)NC4)C2)O1 [Example 18, 5-[(2R,6S)-2-methyl-6-[[3-[(6S)-6-methyl-4,5,6,7-tetrahydropyrazolo[4,3-c]pyridin-1-yl]azetidin-1-yl]methyl]morpholin-4-yl]quinoline-8-carbonitrile]
-2.5	122	C[C@@H]1CN(c2ccc(C#N)c3ncccc23)C[C@H](CN2CC(n3cc4c(n3)C[C@H](C)NC4)C2)O1 [Example 19, 5-[(2R,6S)-2-methyl-6-[[3-[(6S)-6-methyl-4,5,6,7-tetrahydropyrazolo[4,3-c]pyridin-2-yl]azetidin-1-yl]methyl]morpholin-4-yl]quinoline-8-carbonitrile]
-6	76	C[C@@H]1CN(c2ccc(C#N)c3ncccc23)C[C@H](CN2CC(n3ncc4c3CCN[C@@H]4C)C2)O1 [Example 20, 5-[(2R,6S)-2-methyl-6-[[3-[(4R)-4-methyl-4,5,6,7-tetrahydropyrazolo[4,3-c]pyridin-1-yl]azetidin-1-yl]methyl]morpholin-4-yl]quinoline-8-carbonitrile]

SMILES	inhibition at 10 min, 10 µM [1] [%]	IC50 [2] [nM]
C[C@@H]1CN(c2ccc(C#N)c3ncccc23)C[C@H](CN2CC(n3cc4c(n3)CNC4)C2)O1 [Example 11, 5-[(2S,6R)-2-[[3-(5,6-dihydro-4H-pyrrolo[3,4-c]pyrazol-2-yl)azetidin-1-yl]methyl]-6-methyl-morpholin-4-yl]quinoline-8-carbonitrile]	-6	49
